Experimental data taken from patent publication US20210038607A1, “OXADIAZOLYLTHIOPHENE DERIVATIVES USEFUL AS HISTONE DEACETYLASE INHIBITORS” (Karus Therapeutics Limited, priority 2018, published 2021).

Key:
Human HDAC4 = molecular target: T1, Human HDAC4 (Homo sapiens, UniProt P56524); test: HDAC4 biochemical assay, class IIa-specific substrate; settings: read-out: HDAC Isoform IC50 (nM) 4
T1 construct: amino acids 627-1085 with N-terminal GST tag; GST (N); host or cells: baculovirus expression system
T1 sequence (P56524 627-1084 limits assumed): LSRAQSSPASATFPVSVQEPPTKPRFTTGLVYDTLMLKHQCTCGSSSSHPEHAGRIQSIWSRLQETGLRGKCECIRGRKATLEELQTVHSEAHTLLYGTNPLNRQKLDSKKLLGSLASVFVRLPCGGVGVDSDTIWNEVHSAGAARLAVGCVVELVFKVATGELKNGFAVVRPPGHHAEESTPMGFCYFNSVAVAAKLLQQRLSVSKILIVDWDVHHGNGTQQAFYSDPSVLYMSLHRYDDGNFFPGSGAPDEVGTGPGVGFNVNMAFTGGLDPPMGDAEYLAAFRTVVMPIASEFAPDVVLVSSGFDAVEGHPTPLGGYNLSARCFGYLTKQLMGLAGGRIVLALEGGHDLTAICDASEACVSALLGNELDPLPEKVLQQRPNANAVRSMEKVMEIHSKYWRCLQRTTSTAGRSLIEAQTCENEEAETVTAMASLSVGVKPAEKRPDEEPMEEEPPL
Outline: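 GST-tagged human HDAC4 (aa 627-1085, baculovirus) at 0.004 ng/ul was incubated 30 min at room temperature with 50 μM class IIa-specific substrate BOC-Lys(trifluoroacetyl)-AMC in Tris-HCl pH 8.0 buffer with BSA, 1% DMSO. Developer then released AMC, read at 360/460 nm.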

Human HDAC2 = molecular target: T2, Human HDAC2 (Homo sapiens, UniProt Q92769); test: HDAC2 biochemical assay, AMC-labeled peptide substrate; settings: read-out: HDAC Isoform IC50 (nM) 2
T2 construct: full length with C-terminal GST-tag; GST (C); host or cells: baculovirus expression system
T2 sequence (Q92769 whole entry, canonical isoform): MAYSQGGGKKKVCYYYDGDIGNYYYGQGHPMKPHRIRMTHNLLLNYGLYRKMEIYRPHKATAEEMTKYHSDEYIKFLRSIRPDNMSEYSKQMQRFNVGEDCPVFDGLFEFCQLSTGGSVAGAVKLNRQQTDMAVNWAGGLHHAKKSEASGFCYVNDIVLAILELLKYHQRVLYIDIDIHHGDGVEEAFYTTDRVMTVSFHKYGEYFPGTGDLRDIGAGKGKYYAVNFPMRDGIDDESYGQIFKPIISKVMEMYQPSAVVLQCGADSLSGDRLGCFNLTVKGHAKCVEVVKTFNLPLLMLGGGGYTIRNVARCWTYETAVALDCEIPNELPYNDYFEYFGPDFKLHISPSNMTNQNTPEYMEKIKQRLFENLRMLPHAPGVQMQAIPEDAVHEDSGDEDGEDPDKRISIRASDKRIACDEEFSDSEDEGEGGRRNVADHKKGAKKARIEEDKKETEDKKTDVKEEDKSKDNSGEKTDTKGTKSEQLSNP
Outline: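 Full-length human HDAC2 with C-terminal GST tag, baculovirus-expressed, at 0.07 ng/ul with 50 μM RHKK(Ac)AMC substrate in Tris-HCl pH8.0 buffer with BSA, 1% DMSO final. Incubated 1 hour at 30° C with compounds, then developer added; fluorescence read at 360/460 Ex/Em.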

Human HDAC1 = molecular target: T3, Human HDAC1 (Homo sapiens, UniProt Q13547); test: HDAC1 biochemical assay, AMC-labeled peptide substrate; settings: read-out: HDAC Isoform IC50 (nM) 1
T3 construct: full length with C-terminal His-tag and C-terminal FLAG-tag; His (C); FLAG (C); host or cells: baculovirus expression system
T3 sequence (Q13547 whole entry, canonical isoform): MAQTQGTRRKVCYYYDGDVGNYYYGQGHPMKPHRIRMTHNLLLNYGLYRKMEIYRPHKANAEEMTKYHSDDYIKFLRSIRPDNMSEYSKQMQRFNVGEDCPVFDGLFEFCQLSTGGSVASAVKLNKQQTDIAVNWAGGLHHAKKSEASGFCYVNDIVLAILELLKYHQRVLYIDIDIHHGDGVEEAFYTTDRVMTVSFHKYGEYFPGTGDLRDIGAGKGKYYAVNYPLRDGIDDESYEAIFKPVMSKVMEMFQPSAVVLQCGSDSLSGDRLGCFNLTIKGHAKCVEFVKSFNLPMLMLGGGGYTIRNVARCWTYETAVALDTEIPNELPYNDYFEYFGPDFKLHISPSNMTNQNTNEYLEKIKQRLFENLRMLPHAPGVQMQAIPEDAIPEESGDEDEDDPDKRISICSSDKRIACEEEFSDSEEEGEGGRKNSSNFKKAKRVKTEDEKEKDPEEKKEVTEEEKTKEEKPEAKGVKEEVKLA
Outline: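 Baculovirus-expressed full-length human HDAC1 with His and FLAG tags, 0.3 ng/ul, incubated 1 h at 30° C with compound and 50 μM RHKK(Ac)AMC in Tris pH 8.0 buffer with BSA and 1% DMSO. Developer then releases AMC from deacetylated substrate; fluorescence read at 360/460 nm.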

Human HDAC11 = molecular target: T4, Human HDAC11 (Homo sapiens, UniProt Q96DB2); test: HDAC11 biochemical assay, class IIa-specific substrate; settings: read-out: HDAC Isoform IC50 (nM) 11
T4 construct: Human HDAC11 (full length); His (N); host or cells: baculovirus expression system
T4 sequence (Q96DB2 1-347): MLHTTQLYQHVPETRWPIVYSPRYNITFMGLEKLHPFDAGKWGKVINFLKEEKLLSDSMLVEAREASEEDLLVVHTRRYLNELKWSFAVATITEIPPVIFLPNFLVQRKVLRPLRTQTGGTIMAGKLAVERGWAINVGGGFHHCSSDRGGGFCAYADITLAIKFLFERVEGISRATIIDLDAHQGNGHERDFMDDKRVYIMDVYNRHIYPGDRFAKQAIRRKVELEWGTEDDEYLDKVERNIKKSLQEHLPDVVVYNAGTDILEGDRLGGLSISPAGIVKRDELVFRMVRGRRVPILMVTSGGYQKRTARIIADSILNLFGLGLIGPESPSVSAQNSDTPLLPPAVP
Outline: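 Full-length N-His human HDAC11 from baculovirus, 5 ng/μl, incubated with 50 μM Boc-Lys(trifluoroacetyl)-AMC for 30 min at 30 °C. Buffer: 50 mM Tris-HCl pH 8.0, 137 mM NaCl, 2.7 mM KCl, 1 mM MgCl2, 1 mg/mL BSA, 1% DMSO. Developer releases AMC; fluorescence read at 360/460 nm.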

Human HDAC10 = molecular target: T5, Human HDAC10 (Homo sapiens, UniProt Q969S8); test: HDAC10 biochemical assay, AMC-labeled peptide substrate; settings: read-out: HDAC Isoform IC50 (nM) 10
T5 construct: Human HDAC10 (a.a. 1-481); GST (N); His (C); host or cells: baculovirus expression system
T5 sequence (Q969S8 1-481): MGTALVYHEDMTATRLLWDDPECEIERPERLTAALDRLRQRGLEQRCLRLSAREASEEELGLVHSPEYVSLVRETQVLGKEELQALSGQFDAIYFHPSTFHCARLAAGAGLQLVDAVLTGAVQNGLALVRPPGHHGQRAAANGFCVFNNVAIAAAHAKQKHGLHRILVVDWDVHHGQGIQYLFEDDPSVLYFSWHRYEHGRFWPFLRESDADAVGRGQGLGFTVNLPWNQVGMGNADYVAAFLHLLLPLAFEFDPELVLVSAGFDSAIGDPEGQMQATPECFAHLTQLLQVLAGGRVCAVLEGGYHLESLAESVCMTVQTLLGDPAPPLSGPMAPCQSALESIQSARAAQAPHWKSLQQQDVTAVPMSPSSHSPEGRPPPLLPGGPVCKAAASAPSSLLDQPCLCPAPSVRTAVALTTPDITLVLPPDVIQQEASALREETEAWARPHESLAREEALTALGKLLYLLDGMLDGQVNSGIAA
Outline: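 Baculovirus-expressed GST/His-tagged human HDAC10 (aa 1-481), 12 ng/ul, incubated with 50 μM RHKK(Ac)AMC in Tris pH 8.0 buffer with BSA and 1% DMSO, 2 h at 30 °C. Developer then releases AMC, read at 360/460 nm.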

Human HDAC5 = molecular target: T6, Human HDAC5 (Homo sapiens, UniProt Q9UQL6); test: HDAC5 biochemical assay, class IIa-specific substrate; settings: read-out: HDAC Isoform IC50 (nM) 5
T6 construct: full length with C-terminal His tag, MW=51.1 kDa; His (C); host or cells: baculovirus expression system
T6 sequence (Q9UQL6 656-1122 limits assumed): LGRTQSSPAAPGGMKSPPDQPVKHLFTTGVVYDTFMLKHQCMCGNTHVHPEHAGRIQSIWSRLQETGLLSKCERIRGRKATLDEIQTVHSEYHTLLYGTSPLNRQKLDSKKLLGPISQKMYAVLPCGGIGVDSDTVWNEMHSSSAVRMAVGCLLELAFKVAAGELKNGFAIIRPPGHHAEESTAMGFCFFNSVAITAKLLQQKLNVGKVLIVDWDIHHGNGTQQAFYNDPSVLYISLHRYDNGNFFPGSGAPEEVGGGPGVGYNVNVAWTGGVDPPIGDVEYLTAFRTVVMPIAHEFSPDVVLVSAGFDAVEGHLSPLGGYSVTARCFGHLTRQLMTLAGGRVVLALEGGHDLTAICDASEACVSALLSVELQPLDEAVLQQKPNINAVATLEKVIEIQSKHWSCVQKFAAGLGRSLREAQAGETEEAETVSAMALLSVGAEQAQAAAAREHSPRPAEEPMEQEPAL
Outline: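 Full-length C-terminal His-tagged HDAC5 from baculovirus (0.05 ng/ul) incubated 30 min at room temperature with 50 μM Boc-Lys(trifluoroacetyl)-AMC and compound, Tris pH 8.0 buffer with BSA, 1% DMSO. Developer then releases AMC; fluorescence 360/460 nm.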

SMILES | IC50 (Human HDAC4) | IC50 (Human HDAC2) | IC50 (Human HDAC1) | IC50 (Human HDAC11) | IC50 (Human HDAC10) | IC50 (Human HDAC5)
O=C(c1ccc(N(Cc2ccc(-c3noc(C(F)(F)F)n3)s2)c2cnccn2)nn1)N1CCOCC1 [Example DS, 6-(Morpholine-4-carbonyl)-N-(pyrazin-2-yl)-N-({5-[5-(trifluoromethyl)-1,2,4-oxadiazol-3-yl]thiophen-2-yl}methyl)pyridazin-3-amine] | ≤ 500 nM | > 10000 nM | > 10000 nM | > 10000 nM | > 10000 nM | ≤ 500 nM
CC1(c2cnnc(N(Cc3ccc(-c4noc(C(F)(F)F)n4)s3)c3cnccn3)c2)COC1 [Example GT, 5-(3-Methyloxetan-3-yl)-N-(pyrazin-2-yl)-N-({5-[5-(trifluoromethyl)-1,2,4-oxadiazol-3-yl]thiophen-2-yl}methyl)pyridazin-3-amine] | ≤ 10000 nM | > 10000 nM | > 10000 nM | > 10000 nM | > 10000 nM | ≤ 1000 nM
CNC(=O)c1cnnc(N(Cc2ccc(-c3noc(C(F)(F)F)n3)s2)c2cnccn2)c1 [Example DY, N-Methyl-6-[(pyrazin-2-yl)({5-[5-(trifluoromethyl)-1,2,4-oxadiazol-3-yl]thiophen-2-yl}methyl)amino]pyridazine-4-carboxamide] | ≤ 1000 nM | > 10000 nM | > 10000 nM | > 10000 nM | > 10000 nM | ≤ 1000 nM
O=C(c1ccc(N(Cc2ccc(-c3noc(C(F)(F)F)n3)s2)c2cnccn2)nn1)N1CCC12COC2 [Example FH, 6-{6-Oxa-1-azaspiro[3.3]heptane-1-carbonyl}-N-(pyrazin-2-yl)-N-({5-[5-(trifluoromethyl)-1,2,4-oxadiazol-3-yl]thiophen-2-yl}methyl)pyridazin-3-amine] | ≤ 500 nM | > 10000 nM | ≤ 10000 nM | > 10000 nM | > 10000 nM | ≤ 500 nM
FC(F)c1cnnc(N(Cc2ccc(-c3noc(C(F)(F)F)n3)s2)c2cnccn2)c1 [Example GV, 5-(Difluoromethyl)-N-(pyrazin-2-yl)-N-({5-[5-(trifluoromethyl)-1,2,4-oxadiazol-3-yl]thiophen-2-yl}methyl)pyridazin-3-amine] | ≤ 10000 nM | > 10000 nM | > 10000 nM | > 10000 nM | > 10000 nM | ≤ 1000 nM
NC(=O)c1cnnc(N(Cc2ccc(-c3noc(C(F)(F)F)n3)s2)c2cnccn2)c1 [Example DX, 6-[(Pyrazin-2-yl)({5-[5-(trifluoromethyl)-1,2,4-oxadiazol-3-yl]thiophen-2-yl}methyl)amino]pyridazine-4-carboxamide] | ≤ 1000 nM | > 10000 nM | > 10000 nM | > 10000 nM | > 10000 nM | ≤ 500 nM
COC1CN(C(=O)c2cnnc(N(Cc3ccc(-c4noc(C(F)(F)F)n4)s3)c3cnccn3)c2)C1 [Example DZ, 5-(3-Methoxyazetidine-1-carbonyl)-N-(pyrazin-2-yl)-N-({5-[5-(trifluoromethyl)-1,2,4-oxadiazol-3-yl]thiophen-2-yl}methyl)pyridazin-3-amine] | ≤ 10000 nM | > 10000 nM | > 10000 nM | > 10000 nM | > 10000 nM | ≤ 1000 nM
O=C(c1nccnc1N(Cc1ccc(-c2noc(C(F)(F)F)n2)s1)c1cnccn1)N1CCC1 [Example GP, 3-(Azetidine-1-carbonyl)-N-(pyrazin-2-yl)-N-({5-[5-(trifluoromethyl)-1,2,4-oxadiazol-3-yl]thiophen-2-yl}methyl)pyrazin-2-amine] | ≤ 10000 nM | > 10000 nM | > 10000 nM | > 10000 nM | > 10000 nM | ≤ 10000 nM
CC(C)(O)c1cnnc(N(Cc2ccc(-c3noc(C(F)(F)F)n3)s2)c2cnccn2)c1 [Example GS, 2-{6-[(Pyrazin-2-yl)({5-[5-(trifluoromethyl)-1,2,4-oxadiazol-3-yl]thiophen-2-yl}methyl)amino]pyridazin-4-yl}propan-2-ol] | ≤ 1000 nM | > 10000 nM | ≤ 10000 nM | > 10000 nM | > 10000 nM | ≤ 1000 nM
C[C@H]1CCCN1C(=O)c1cnnc(N(Cc2ccc(-c3noc(C(F)(F)F)n3)s2)c2cnccn2)c1 [Example GY, 5-[(2S)-2-Methylpyrrolidine-1-carbonyl]-N-(pyrazin-2-yl)-N-({5-[5-(trifluoromethyl)-1,2,4-oxadiazol-3-yl]thiophen-2-yl}methyl)pyridazin-3-amine] | ≤ 10000 nM | > 10000 nM | > 10000 nM | > 10000 nM | > 10000 nM | ≤ 1000 nM
O=C(c1cnnc(N(Cc2ccc(-c3noc(C(F)(F)F)n3)s2)c2cnccn2)c1)N1CCC(F)(F)CC1 [Example FY, 5-(4,4-Difluoropiperidine-1-carbonyl)-N-(pyrazin-2-yl)-N-({5-[5-(trifluoromethyl)-1,2,4-oxadiazol-3-yl]thiophen-2-yl}methyl)pyridazin-3-amine] | ≤ 10000 nM | > 10000 nM | > 10000 nM | > 10000 nM | > 10000 nM | ≤ 1000 nM
O=C(c1cnnc(N(Cc2ccc(-c3noc(C(F)(F)F)n3)s2)c2cnccn2)c1)N1CC2(COC2)C1 [Example FZ, 5-{2-Oxa-6-azaspiro[3.3]heptane-6-carbonyl}-N-(pyrazin-2-yl)-N-({5-[5-(trifluoromethyl)-1,2,4-oxadiazol-3-yl]thiophen-2-yl}methyl)pyridazin-3-amine] | ≤ 10000 nM | > 10000 nM | > 10000 nM | > 10000 nM | > 10000 nM | ≤ 1000 nM
O=C(c1cnnc(N(Cc2ccc(-c3noc(C(F)(F)F)n3)s2)c2cnccn2)c1)N1CCS(=O)(=O)CC1 [Example ED, 4-{6-[(Pyrazin-2-yl)({5-[5-(trifluoromethyl)-1,2,4-oxadiazol-3-yl]thiophen-2-yl}methyl)amino]pyridazine-4-carbonyl}-1λ^6-thiomorpholine-1,1-dione] | ≤ 10000 nM | > 10000 nM | > 10000 nM | > 10000 nM | > 10000 nM | ≤ 1000 nM
CN1CCN(C(=O)c2cnnc(N(Cc3ccc(-c4noc(C(F)(F)F)n4)s3)c3cnccn3)c2)CC1 [Example EC, 5-(4-Methylpiperazine-1-carbonyl)-N-(pyrazin-2-yl)-N-({5-[5-(trifluoromethyl)-1,2,4-oxadiazol-3-yl]thiophen-2-yl}methyl)pyridazin-3-amine] | ≤ 10000 nM | > 10000 nM | > 10000 nM | > 10000 nM | > 10000 nM | ≤ 10000 nM
